Data taken from patent US20190142971A1, “FORMULATION AND DELIVERY OF MODIFIED NUCLEOSIDE, NUCLEOTIDE, AND NUCLEIC ACID COMPOSITIONS” (ModernaTX, Inc., priority 2013, published 2019).

How the values were obtained:
[1] = tested on: Balb-C mice; experiment: Example 108: luciferase mRNA IM with electroporation, total flux (Tables 174-176); assay type: in vivo; settings: PBS, IM 2.5 mg/kg
Method: The mice of Group 2 were treated with electroporation (EP) using the […]™ instrument (Harvard Apparatus/BTX®, Holliston, Mass.) immediately after administration of luciferase.
[…] Twenty minutes prior to imaging, the mice were injected intraperitoneally with a D-luciferin solution at 150 mg/kg. Animals were then anesthetized and images were acquired with an IVIS Lumina II imaging system (Perkin Elmer). Bioluminescence was measured as total flux (photons/second) of the entire mouse.

[2] = tested on: Balb-C mice; experiment: Example 117: repeat dose luciferase KC2 LNP IM, IV, live and tissue imaging (Tables 192-200); assay type: in vivo; settings: luciferase mRNA in PBS, IM 2.50 mg/kg
Method: “TM-2” means the groups were administered with 2 doses, administered 24 hours apart, “IV” means intravenous administration, “TV-1” means the groups were administered a single dose tail vein injection and “TV-2” means the groups were administered with 2 doses, administered 7 days apart. 2 groups of untreated Balb-C mice (n=3) were also evaluated. Groups 1, 3 and 7 were injected in the right leg and administration was repeated but into the left leg with 24 hours between injections. Groups 2, 4, and 9 were administered the mRNA in the right leg followed by repeat administration in the right leg with 24 hours between injections for Group 2 and 7 days between injections for Groups 4 and 9.
The final lipid molar ratio ranges of DLin-KC2-DMA, DSPC, cholesterol and PEG-DMG for the KC2 LNP are outlined in Table 194. The weight ratio of total lipid to mRNA was 20:1, the mean size was 95 nm (PDI: 0.11), the zeta at pH 7.4 was −1.0 mV and the encapsulation (RiboGreen) was essentially 100%.
Live imaging mice were imaged at 8 hours post-administration of each dose of luciferase modified mRNA and tissue imaging mice imaged 8 post-administration of the final dose of luciferase modified mRNA. Twenty minutes prior to imaging, the mice were injected intraperitoneally with a D-luciferin solution at 150 mg/kg. Animals were then anesthetized and images were acquired with an IVIS Lumina II imaging system (Perkin Elmer). For the tissue imaging mice (Groups 6-9), the mice were dissected twenty minutes after the D-luciferin injection and organs and tissue were subsequently imaged (muscle around injection site, liver and spleen for Groups 6 and 7 and were subsequently imaged the liver and spleen for Groups 8 and 9). Bioluminescence was measured as total flux (photons/second) of the mid-section and the entire mouse (IV administration), the injection site (IM administration), or the entire organ (tissue imaging).

[3] = tested on: C57BL/6; experiment: Example 114: mouse EPO mRNA electroporation multi-dose, serum EPO (Tables 183, 184); assay type: in vivo, mice; settings: mouse EPO mRNA in PBS, IM 0.2 mg/kg per dose with EP
Method: Serum was collected from the mice at 24 hours post the first, second, third and fourth doses.

[4] = tested on: mice; experiment: Example 48: split dose study EPO mmRNA IM in mice, serum EPO, dose splitting factor (Table 79); assay type: in vivo
Method: The dosing vehicle (F. buffer) consisted of 150 mM NaCl, 2 mM CaCl2), 2 mM Natphosphate (1.4 mM monobasic sodium phosphate; 0.6 mM dibasic sodium phosphate), and 0.5 mM EDTA, pH 6.5. The pH was adjusted using sodium hydroxide and the final solution was filter sterilized.
Animals (n=5) were injected IM (intramuscular) for the single unit dose of 100 ug. For multi-dosing, two schedules were used, 3 doses of 100 ug and 6 doses of 100 ug. For the split dosing scheme, two schedules were used, 3 doses at 33.3 ug and 6 doses of 16.5 ug mmRNA. Control dosing involved use of buffer only at 6 doses. […] Blood and muscle tissue were evaluated 13 hrs post injection.
Human EPO protein was measured in mouse serum 13 h post I.M. single, multi- or split dosing of the EPO mmRNA in buffer. Seven groups of mice (n=5 mice per group) were treated and evaluated.
The splitting factor is defined as the product per unit drug divided by the single dose product per unit drug (PUD). For example for treatment group 2 the value 0.28 or product (EPO) per unit drug (mmRNA) is divided by the single dose product per unit drug of 0.14. The result is 2. Likewise, for treatment group 4, the value 1.1 or product (EPO) per unit drug (mmRNA) is divided by the single dose product per unit drug of 0.14. The result is 7.9. Consequently, the dose splitting factor (DSF) may be used as an indicator of the efficacy of a split dose regimen. For any single administration of a total daily dose, the DSF should be equal to 1. Therefore any DSF greater than this value in a split dose regimen is an indication of increased efficacy.

[5] = tested on: HEK293 cells; experiment: Example 46B: percent modification, HEK293 G-CSF ELISA (Table 75); assay type: cell-based, Human

Molecule: Luciferase: luciferase mRNA, SEQ ID NO: 14, Cap1, fully modified with 5-methylcytosine and pseudouridine
- Total Flux (photons/s) ([1]; Group 1, no EP, 3 Hours): 2.57E+07 photons/s
- Total Flux (photons/s) ([1]; Group 1, no EP, 24 Hours): 3.81E+07 photons/s
- Total Flux (photons/s) ([1]; Group 1, no EP, 48 Hours): 1.24E+07 photons/s
- Total Flux (photons/s) ([1]; Group 1, no EP, 72 Hours): 5.69E+06 photons/s
- Total Flux (photons/s) ([1]; Group 1, no EP, 168 Hours): 1.48E+06 photons/s
- Total Flux (photons/s) ([1]; Group 1, no EP, 240 Hours): 6.50E+05 photons/s
- Total Flux (photons/s) ([1]; Group 1, no EP, 360 Hours): 1.86E+05 photons/s
- Total Flux (photons/s) ([1]; Group 1, no EP, 480 Hours): 6.65E+04 photons/s
- Total Flux (photons/s) ([1]; Group 2, with EP, 24 Hours): 8.27E+07 photons/s
- Total Flux (photons/s) ([1]; Group 2, with EP, 48 Hours): 7.06E+07 photons/s
- Total Flux (photons/s) ([1]; Group 2, with EP, 72 Hours): 6.50E+07 photons/s
- Total Flux (photons/s) ([1]; Group 2, with EP, 168 Hours): 1.81E+07 photons/s
- Total Flux (photons/s) ([1]; Group 2, with EP, 240 Hours): 1.44E+07 photons/s
- Total Flux (photons/s) ([1]; Group 2, with EP, 360 Hours): 3.98E+06 photons/s
- Total Flux (photons/s) ([1]; Group 2, with EP, 480 Hours): 1.47E+06 photons/s
- Total Flux (photons/s) ([1]; Group 2, with electroporation (EP), 3 Hours): 1.25E+07 photons/s
- Expression (Flux (p/s)) ([2]; Dose 1, Dosed Right limb): 6.71E+06 p/s
- Expression (Flux (p/s)) ([2]; Dose 1, Undosed Left limb): 2.28E+05 p/s
- Expression (Flux (p/s)) ([2]; Dose 2, Dosed Left limb): 1.16E+07 p/s
- Expression (Flux (p/s)) ([2]; Dose 2, Undosed Right limb): 2.44E+07 p/s

B1: EPO: modified mRNA encoding human erythropoietin, SEQ ID NO: 7, Cap1, fully modified with 5-methylcytosine and pseudouridine; LNP NPA-060-1 in Examples 17-22 (nucleic acid)
chain: GGGAAAUAAGAGAGAAAAGAAGAGUAAGAAGAAAUAUAAGAGCCACCAUGGGAGUGCACGAGUGUCCCGCGUGGUUGUGGUUGCUGCUGUCGCUCUUGAGCCUCCCACUGGGACUGCCUGUGCUGGGGGCACCACCCAGAUUGAUCUGCGACUCACGGGUACUUGAGAGGUACCUUCUUGAAGCCAAAGAAGCCGAAAACAUCACAACCGGAUGCGCCGAGCACUGCUCCCUCAAUGAGAACAUUACUGUACCGGAUACAAAGGUCAAUUUCUAUGCAUGGAAGAGAAUGGAAGUAGGACAGCAGGCCGUCGAAGUGUGGCAGGGGCUCGCGCUUUUGUCGGAGGCGGUGUUGCGGGGUCAGGCCCUCCUCGUCAACUCAUCACAGCCGUGGGAGCCCCUCCAACUUCAUGUCGAUAAAGCGGUGUCGGGGCUCCGCAGCUUGACGACGUUGCUUCGGGCUCUGGGCGCACAAAAGGAGGCUAUUUCGCCGCCUGACGCGGCCUCCGCGGCACCCCUCCGAACGAUCACCGCGGACACGUUUAGGAAGCUUUUUAGAGUGUACAGCAAUUUCCUCCGCGGAAAGCUGAAAUUGUAUACUGGUGAAGCGUGUAGGACAGGGGAUCGCUGAUAAGCUGCCUUCUGCGGGGCUUGCCUUCUGGCCAUGCCCUUCUUCUCUCCCUUGCACCUGUACCUCUUGGUCUUUGAAUAAAGCCUGAGUAGGAAG
modifications: Cap1, 5-methylcytosine, pseudouridine
- First Dose EPO ([3]; serum 24 hours post first dose): 151.9 pg/mL
- Fourth Dose EPO ([3]; serum 24 hours post fourth dose): 258.1 pg/mL
- Second Dose EPO ([3]; serum 24 hours post second dose): 357.8 pg/mL
- Third Dose EPO ([3]; serum 24 hours post third dose): 898.5 pg/mL
- product (EPO) per unit drug (mmRNA) ([4]; single dose): 0.14
- dose splitting factor (DSF) ([4]; treatment group 2): 2
- product (EPO) per unit drug (mmRNA) ([4]; treatment group 2): 0.28
- dose splitting factor (DSF) ([4]; treatment group 4): 7.9
- product (EPO) per unit drug (mmRNA) ([4]; treatment group 4): 1.1

B2: G-CSF: modified mRNA encoding human G-CSF, SEQ ID NO: 4, Cap1, fully modified with 5-methylcytosine and pseudouridine; LNP-formulated in Examples 16-22 (nucleic acid)
chain: GGGAAAUAAGAGAGAAAAGAAGAGUAAGAAGAAAUAUAAGAGCCACCAUGGCCGGUCCCGCGACCCAAAGCCCCAUGAAACUUAUGGCCCUGCAGUUGCUGCUUUGGCACUCGGCCCUCUGGACAGUCCAAGAAGCGACUCCUCUCGGACCUGCCUCAUCGUUGCCGCAGUCAUUCCUUUUGAAGUGUCUGGAGCAGGUGCGAAAGAUUCAGGGCGAUGGAGCCGCACUCCAAGAGAAGCUCUGCGCGACAUACAAACUUUGCCAUCCCGAGGAGCUCGUACUGCUCGGGCACAGCUUGGGGAUUCCCUGGGCUCCUCUCUCGUCCUGUCCGUCGCAGGCUUUGCAGUUGGCAGGGUGCCUUUCCCAGCUCCACUCCGGUUUGUUCUUGUAUCAGGGACUGCUGCAAGCCCUUGAGGGAAUCUCGCCAGAAUUGGGCCCGACGCUGGACACGUUGCAGCUCGACGUGGCGGAUUUCGCAACAACCAUCUGGCAGCAGAUGGAGGAACUGGGGAUGGCACCCGCGCUGCAGCCCACGCAGGGGGCAAUGCCGGCCUUUGCGUCCGCGUUUCAGCGCAGGGCGGGUGGAGUCCUCGUAGCGAGCCACCUUCAAUCAUUUUUGGAAGUCUCGUACCGGGUGCUGAGACAUCUUGCGCAGCCGUGAAGCGCUGCCUUCUGCGGGGCUUGCCUUCUGGCCAUGCCCUUCUUCUCUCCCUUGCACCUGUACCUCUUGGUCUUUGAAUAAAGCCUGAGUAGGAAG
modifications: Cap1, 5-methylcytosine, pseudouridine
- half-life of mRNA [5]: 8 to 10 h
